13 compounds from PubChem BioAssay (NCI) can be followed below.

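Protocol summary: plate cells (96-well), add compound at 5 concentrations, incubate 48 h, interpolate endpoints linearly. TGI denotes the concentration required for complete inhibition of growth.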 *1 amine or outer side, *2 acyl side, *3 side chain or, on linkers, in order; H or OH if unused. Where a SMILES comes first, the peptide text is derived from it. The star is where a group is joined. γGlu = O=C(O)[CH](CCC(=O)[*:2])N[*:1]; NHOH = ON*

Some test systems named below: SW-620 colon; OVCAR-5 ovarian; A498 renal; SNB-75 CNS; A549 NSCLC; CAKI-1 renal; 786-0 renal; HOP-92 NSCLC; SK-MEL-28 melanoma; HL-60(TB) leukemia; DU-145 prostate; HS 578T breast; MDA-MB-231 breast.
What all share (experiment): NCI-60 cell line screen, 48 h

Take `CSC(=Nc1ccc([N+](=O)[O-])cc1C#N)NC(=O)c1ccccc1`: the TGI in the experiment on SW-620 colon, in the experiment on OVCAR-5 ovarian, with A498 renal, with SNB-75 CNS, in the experiment with A549 NSCLC and in the experiment with CAKI-1 renal was > 100 µM in each case. Besides, the TGI in the experiment on 786-0 renal, in the experiment on HOP-92 NSCLC, in the experiment on SK-MEL-28 melanoma and in the experiment on HL-60(TB) leukemia was > 100 µM throughout.
Take `CCCCCCCCCCCCCOCCOCCOCCCCC(O)CCCCCCCCCC1=C[C@H](C)OC1=O` (some centres not stated): the TGI with SW-620 colon is 76.9 µM; with DU-145 prostate it was 66.3 µM; in the experiment with HS 578T breast, 47.6 µM; in the experiment with OVCAR-5 ovarian, 78.7 µM; with MDA-MB-231 breast, 50.5 µM; in the experiment on SNB-75 CNS, > 100 µM. Further, the TGI in the experiment with A549 NSCLC worked out at 36.9 µM; with CAKI-1 renal, 44.4 µM; in the experiment with 786-0 renal it was 49.2 µM; in the experiment with SK-MEL-28 melanoma it was 31.5 µM; with HL-60(TB) leukemia it was 16 µM.
For `CCOc1cc2c(cc1OC)c[n+](C)c1c3cc(OC)c(OC)cc3ccc21`, the TGI in the experiment with SW-620 colon was > 93.5 µM; in the experiment on OVCAR-5 ovarian it was > 85.2 µM; in the experiment on A498 renal, > 100 µM; in the experiment on A549 NSCLC, > 100 µM; in the experiment with CAKI-1 renal, > 100 µM; with 786-0 renal, > 56.6 µM. For the same compound, the TGI was > 60.3 µM with HOP-92 NSCLC, > 100 µM with SK-MEL-28 melanoma and 32.2 µM in the experiment on HL-60(TB) leukemia.
For the compound `COc1ccc(/C=C2\C(=O)N(C(=O)c3ccc(NC(C)=O)cc3)N=C2C)cc1OC`, the TGI with SW-620 colon, in the experiment on OVCAR-5 ovarian, in the experiment with SNB-75 CNS, with A549 NSCLC, with CAKI-1 renal and in the experiment with 786-0 renal was > 100 µM each time. Besides, the TGI in the experiment on SK-MEL-28 melanoma and with HL-60(TB) leukemia was > 100 µM each time.
As for `Cc1cnoc1/N=C1\C=C(Nc2oncc2C)C(=O)c2ccccc21`, the TGI with SW-620 colon, in the experiment with OVCAR-5 ovarian, with A498 renal, in the experiment with SNB-75 CNS, in the experiment on A549 NSCLC and with CAKI-1 renal was > 100 µM each time. Also, the TGI in the experiment on 786-0 renal, with HOP-92 NSCLC, in the experiment with SK-MEL-28 melanoma and with HL-60(TB) leukemia was > 100 µM in each case.
As for `NC(CCC(=O)NC(CCC(=O)NO)C(=O)NCC(=O)O)C(=O)O` (configuration not stated) (γGlu-Glu(NHOH)-Gly-OH; configuration not given here), the TGI in the experiment on SW-620 colon, in the experiment with DU-145 prostate, in the experiment with OVCAR-5 ovarian, with MDA-MB-231 breast, with A498 renal and in the experiment with SNB-75 CNS was > 100 µM each time. Moreover, the TGI in the experiment with A549 NSCLC, in the experiment on CAKI-1 renal, with 786-0 renal, in the experiment on HOP-92 NSCLC, in the experiment on SK-MEL-28 melanoma and in the experiment with HL-60(TB) leukemia was > 100 µM each time.
As to `CCOC(=O)Cn1nnc2ccc(Nc3nc4ccccc4nc3C(=O)OCC)cc21`, the TGI in the experiment with SW-620 colon is > 100 µM; in the experiment on DU-145 prostate, > 100 µM; in the experiment on HS 578T breast, > 100 µM; in the experiment with OVCAR-5 ovarian, > 100 µM; in the experiment on A498 renal, > 100 µM; in the experiment on SNB-75 CNS it was 46.5 µM. Moreover, the TGI in the experiment with A549 NSCLC, in the experiment on CAKI-1 renal, in the experiment on 786-0 renal, with HOP-92 NSCLC, in the experiment on SK-MEL-28 melanoma and with HL-60(TB) leukemia was > 100 µM throughout.
On to `O=NN(CC1(O)OCC(O)C(O)C1O)C(Cc1c[nH]c2ccccc12)C(=O)O` (configuration not stated), for which the TGI with SW-620 colon, in the experiment on OVCAR-5 ovarian, with A498 renal, in the experiment on SNB-75 CNS, with A549 NSCLC and with 786-0 renal was > 100 µM each time. In addition, the TGI with HOP-92 NSCLC, in the experiment on SK-MEL-28 melanoma and with HL-60(TB) leukemia was > 100 µM in each case.
As to `COC(=O)C1=C(C(=O)OC)C23CC4CCC2(C(=O)C1O3)C4(C)C` (configuration not stated), the TGI with SW-620 colon, with DU-145 prostate, in the experiment on OVCAR-5 ovarian, with A498 renal, in the experiment on SNB-75 CNS and with A549 NSCLC was > 100 µM each time. For the same compound, the TGI was > 100 µM in the experiment on CAKI-1 renal; > 100 µM with 786-0 renal; > 100 µM with HOP-92 NSCLC; > 100 µM with SK-MEL-28 melanoma; 52.6 µM with HL-60(TB) leukemia.
Take `CN1CCN(c2n[nH]c(=O)c3c2nnn3Cc2ccccc2)CC1`: the TGI in the experiment on DU-145 prostate, in the experiment with MDA-MB-231 breast, in the experiment on SNB-75 CNS, with A549 NSCLC, with CAKI-1 renal and in the experiment with 786-0 renal was > 100 µM in each case. Besides, the TGI in the experiment on HOP-92 NSCLC, with SK-MEL-28 melanoma and with HL-60(TB) leukemia was > 100 µM each time.
With `CC(C)NC1CCCCC2c3ccccc3C12O` (configuration not stated), the TGI with SW-620 colon, in the experiment with SNB-75 CNS, with A549 NSCLC, with 786-0 renal, in the experiment with SK-MEL-28 melanoma and with HL-60(TB) leukemia was > 100 µM in each case.
Turning to `CCN(CC)P(=O)(c1ccc2c(c1)OCCOCCOCCOCCO2)N(CC)CC`, the TGI in the experiment with SW-620 colon, with DU-145 prostate, in the experiment with HS 578T breast, in the experiment with MDA-MB-231 breast, in the experiment with A498 renal and in the experiment on SNB-75 CNS was > 100 µM each time. Further, the TGI with A549 NSCLC, with CAKI-1 renal, in the experiment on 786-0 renal, in the experiment on SK-MEL-28 melanoma and with HL-60(TB) leukemia was > 100 µM throughout.
For `CS(=O)(=O)N(CCC#N)c1ccc(/C=C2\N=C(c3ccccc3Cl)OC2=O)cc1`, the TGI in the experiment with SW-620 colon, in the experiment on OVCAR-5 ovarian, in the experiment with A498 renal, in the experiment with SNB-75 CNS, with A549 NSCLC and with CAKI-1 renal was > 100 µM each time. The TGI in the experiment with 786-0 renal, in the experiment on SK-MEL-28 melanoma and in the experiment on HL-60(TB) leukemia was > 100 µM each time.
